According to patent US20210330611A1, “THERAPY FOR NEUROLOGICAL DISEASES/DISORDERS” (priority 2020, published 2021):
Like-named read-outs stand apart in the source and are kept apart here.

What was measured:
[1] = system: fibrin-induced microglia activation; experiment: Image-based assay of fibrin-induced microglia activation (HTS and dose response); assay type: cell-based, rat; settings: for inhibition at 10 µM: Rattus norvegicus, Microglia, read-out: Fibrin % inhibition
[2] = system: fibrin- and LPS-induced microglia activation; experiment: cells; assay type: cell-based, rat
primary rat microglia [3] = experiment: Cell toxicity (dead cells, size <150 μm2) in LPS assay; settings: for IC50: read-out: Cell Toxicity IC50 (uM) [LPS assay]
primary rat microglia [4] = experiment: Cell toxicity (dead cells, size <150 μm2) in coated fibrin (cFib) assay; settings: for IC50: read-out: Cell Toxicity IC50 (uM) [cFib assay];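 as to Fibrin % cell toxicity: share of dead cells sized under 150 µm2 at 10 µM in fibrin-stimulated microglia HTS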
[5] = system: LPS-induced microglia activation; experiment: Image-based assay of LPS-induced microglia activation (HTS and dose response); assay type: cell-based, rat; settings: for inhibition at 10 µM: Rattus norvegicus, Microglia, read-out: LPS % inhibition
[6] = primary microglia HTS, fibrin stimulation, activation = cell size >800 μm2
[7] = quadrant by fibrin and LPS inhibition in HTS of 1907 compounds
[8] = primary microglia HTS, LPS stimulation, toxicity = cell size <150 μm2
[9] = primary microglia HTS, fibrin stimulation, toxicity = cell size <150 μm2
[10] = 48 h, primary microglia HTS, LPS stimulation, activation = cell size >800 μm2
[11] = primary microglia HTS, fibrin stimulation, increased cell size (>800 μm^2) as marker of activation
[12] = primary microglia HTS, LPS stimulation, decreased size (<150 μm^2) as marker of toxicity
[13] = primary microglia HTS, fibrin stimulation, decreased size (<150 μm^2) as marker of toxicity
[14] = 48 h, primary microglia HTS, LPS stimulation, increased cell size (>800 μm^2) as marker of activation
[15] = primary microglia HTS, 10 μM, fibrin-stimulated, cell size >800 μm^2 as marker of activation
[16] = HTS of 1907 compounds, quadrant by fibrin and LPS inhibition
[17] = primary microglia HTS, 10 μM, LPS assay, cell size <150 μm^2 as marker of toxicity
[18] = primary microglia HTS, 10 μM, fibrin assay, cell size <150 μm^2 as marker of toxicity
[19] = primary microglia HTS, 10 μM, LPS-stimulated, cell size >800 μm^2 as marker of activation
[20] = primary HTS, 10 μM, fibrin-stimulated primary microglia
[21] = primary HTS, 10 μM, LPS assay, dead cells size <150 μm2
[22] = primary HTS, 10 μM, fibrin assay, dead cells size <150 μm2
[23] = primary HTS, 10 μM, LPS-stimulated primary microglia
[24] = primary microglia HTS, LPS stimulation, increased cell size (>800 μm^2) as marker of activation

CCOC(=O)Nc1nc2ccccc2[nH]1 [Lobendazole]
inhibition at 10 µM [1, 6]: -4%
Quadrant (FIG. 5b) [2, 7]: Q4
LPS % cell toxicity (primary rat microglia [3]; [8]): 0%
Fibrin % cell toxicity (primary rat microglia [4]; [9]): 0%
inhibition at 10 µM [5, 10]: 20%

Oc1ccc(OCc2ccccc2)cc1 [Monobenzone]
inhibition at 10 µM [1, 11]: 7%
Quadrant (FIG. 5b) [2, 7]: Q4
LPS % cell toxicity (primary rat microglia [3]; [12]): 0%
Fibrin % cell toxicity (primary rat microglia [4]; [13]): 1%
inhibition at 10 µM [5, 14]: 16%

N[C@@H](Cc1cc(I)c(Oc2cc(I)c(O)c(I)c2)c(I)c1)C(=O)O [Thyroxine, Levothyroxine]
Fibrin % inhibition [1, 15]: 5%
Quadrant (FIG. 5b) [2, 16]: Q4
LPS % cell toxicity (primary rat microglia [3]; [17]): 1%
Fibrin % cell toxicity (primary rat microglia [4]; [18]): 1%
LPS % inhibition [5, 19]: 25%

CN(C)CCCOc1nn(Cc2ccccc2)c2ccccc12 [Benzydamine]
inhibition at 10 µM [1, 20]: -16%
Quadrant (FIG. 5b) ([2]; primary HTS, 10 μM): Q4
LPS % cell toxicity (primary rat microglia [3]; [21]): 1%
Fibrin % cell toxicity (primary rat microglia [4]; [22]): 1%
inhibition at 10 µM [5, 23]: 30%

COC(=O)[C@@H]1CC2=CC(=O)CC[C@]2(C)[C@@]23O[C@@H]2C[C@@]2(C)[C@@H](CC[C@@]24CCC(=O)O4)[C@H]13 [Eplerenore, reference compound]
Fibrin Selectivity [1]: 8
Fibrin Selectivity (LOG10) [1]: 0.88
IC50 ([1]; Table 1, dose response 0.001-20 μM, triplicates, primary rat microglia, 48 h, read-out: Fibrin IC50): 3 µM
IC50 ([1]; Table 3, read-out: Fibrin IC50 (uM) (Suppl. Table 7)): 3 µM
IC50 ([1]; dose response, fibrin-induced microglia activation, read-out: Fibrin IC50): 3 µM
IC50 ([1]; fibrin-induced microglia activation, dose response, read-out: Fibrin IC50 (uM) (Suppl. Table 7)): 3 µM
Fibrin % inhibition [1, 11]: 63%
Hit ([2]; HTS hit classification): HIT (Hits were defined as molecules that exhibited greater than 50% inhibition of either fibrin or LPS activation)
Quadrant (FIG. 5b) [2, 16]: Q2
Quadrant (FIG. 5b) ([2]; Table 1, screen at 10 μM): Q2
Cherry-picked Hit (Suppl. Table 7) ([2]; Table 3): HIT (Hits were defined as molecules that exhibited greater than 50% inhibition of either fibrin or LPS activation)
Quadrant (FIG. 5b) ([2]; Table 3, screen at 10 μM): Q2
Cherry-picked Hit (Suppl. Table 7) ([2]; hit classification in microglia HTS): HIT (Hits were defined as molecules that exhibited greater than 50% inhibition of either fibrin or LPS activation)
Quadrant (FIG. 5b) [2, 7]: Q2
LPS % cell toxicity (primary rat microglia [3]; [12]): 2%
IC50 (primary rat microglia [3]; LPS assay): > 20 µM
IC50 (primary rat microglia [3]; Table 3): > 20 µM
Fibrin % cell toxicity (primary rat microglia [4]; [13]): 2%
IC50 (primary rat microglia [4]; Table 3): > 20 µM
IC50 (primary rat microglia [4]; cFib assay): > 20 µM
IC50 ([5]; LPS-induced microglia activation, dose response, read-out: LPS IC50 (uM) (Suppl. Table 7)): > 20 µM
IC50 ([5]; Table 1, dose response 0.001-20 μM, triplicates, primary rat microglia, 48 h, read-out: LPS IC50): > 20 µM
IC50 ([5]; Table 3, read-out: LPS IC50 (uM) (Suppl. Table 7)): > 20 µM
IC50 ([5]; dose response, LPS-induced microglia activation, read-out: LPS IC50): > 20 µM
LPS % inhibition [5, 24]: 69%

O=[N+]([O-])C(Br)(CO)CO [Bronopol]
inhibition at 10 µM [1, 11]: 43%
Quadrant (FIG. 5b) [2, 7]: Q1
LPS % cell toxicity (primary rat microglia [3]; [12]): 61%
Fibrin % cell toxicity (primary rat microglia [4]; [13]): 2%
inhibition at 10 µM [5, 14]: 119%

CCCCOc1cc(C(=O)OCCN(CC)CC)ccc1N [Oxybuprocaine]
inhibition at 10 µM [1, 11]: 7%
Quadrant (FIG. 5b) [2, 7]: Q4
LPS % cell toxicity (primary rat microglia [3]; [12]): 0%
Fibrin % cell toxicity (primary rat microglia [4]; [13]): 1%
inhibition at 10 µM [5, 14]: 11%

NC(=O)N1c2ccccc2CC(=O)c2ccccc21 [Oxcarbazepine, Trileptal]
Fibrin % inhibition [1, 11]: 3%
Quadrant (FIG. 5b) [2, 7]: Q4
LPS % cell toxicity (primary rat microglia [3]; [12]): 0%
Fibrin % cell toxicity (primary rat microglia [4]; [13]): 1%
LPS % inhibition [5, 24]: 35%

COc1cc(CNC(=O)CCCC/C=C/C(C)C)ccc1O [Capsaicin]
inhibition at 10 µM [1, 20]: -45%
Quadrant (FIG. 5b) ([2]; primary HTS, 10 μM): Q4
LPS % cell toxicity (primary rat microglia [3]; [21]): 0%
Fibrin % cell toxicity (primary rat microglia [4]; [22]): 1%
inhibition at 10 µM [5, 23]: 9%

NC(=O)NS(=O)(=O)c1ccc(N)cc1 [Sulfacarbamide]
inhibition at 10 µM [1, 15]: 45%
Quadrant (FIG. 5b) [2, 16]: Q4
LPS % cell toxicity (primary rat microglia [3]; [17]): 0%
Fibrin % cell toxicity (primary rat microglia [4]; [18]): 1%
inhibition at 10 µM [5, 19]: 46%

CN(C)CCN(Cc1ccccc1)c1ccccn1 [Tripelennamine]
inhibition at 10 µM [1, 15]: 14%
Quadrant (FIG. 5b) [2, 16]: Q4
LPS % cell toxicity (primary rat microglia [3]; [17]): 0%
Fibrin % cell toxicity (primary rat microglia [4]; [18]): 1%
inhibition at 10 µM [5, 19]: 25%

O=C(NCc1ccccc1)OCCO [Buramate]
inhibition at 10 µM [1, 20]: 9%
Quadrant (FIG. 5b) ([2]; primary HTS, 10 μM): Q4
LPS % cell toxicity (primary rat microglia [3]; [21]): 0%
Fibrin % cell toxicity (primary rat microglia [4]; [22]): 1%
inhibition at 10 µM [5, 23]: 17%

O=C1Nc2ccc(Cl)cc2C(c2ccccc2Cl)=NC1O (stereo not drawn) [Lorazepam]
inhibition at 10 µM [1, 6]: -13%
Quadrant (FIG. 5b) [2, 7]: Q4
LPS % cell toxicity (primary rat microglia [3]; [8]): 0%
Fibrin % cell toxicity (primary rat microglia [4]; [9]): 1%
inhibition at 10 µM [5, 10]: -1%

Cc1cc(-c2ccccc2)nnc1NCCN1CCOCC1 [Minaprine]
inhibition at 10 µM [1, 11]: -22%
Quadrant (FIG. 5b) [2, 7]: Q4
LPS % cell toxicity (primary rat microglia [3]; [12]): 0%
Fibrin % cell toxicity (primary rat microglia [4]; [13]): 0%
inhibition at 10 µM [5, 14]: 10%
